Experimental data as given in patent US20210400967A1, “COMPOSITIONS COMPRISING PYRIDINE CARBOXYLATE HERBICIDES WITH GLYPHOSATE OR GLUFOSINATE” (Corteva Agriscience LLC, priority 2018, published 2021).

Key:
Format in all cases: in vivo
[1] = tested on: Ipomoea hederacea (ivyleaf morningglory); assay: Greenhouse postemergence herbicidal effect, ivyleaf morningglory (IPOHE); conditions: Example 5, 20-22 d
Source text: (§1) Greenhouse Trial Methodology—Evaluation of Postemergence Herbicidal Effect
(§2) Seeds of the desired test plant species were planted in a 90:10% v/v (volume/volume) mixture of PRO-MIX® BX (Premier Tech Horticulture, Quakertown, Pa., USA) and PROFILE® GREENS GRADE™ (Profile Products LLC, Buffalo Grove, Ill., USA) planting mixture, which typically has a pH of 5.2 to 6.2 and an organic matter content of at least 50 percent, in plastic pots with a surface area of 103.2 square centimeters (cm^2). In some aspects, to ensure good germination and healthy plants, a fungicide treatment and/or other chemical or physical treatment was applied. The plants were grown for 7-36 days (d) in a greenhouse with an approximate 14-hour (h) photo-period which was maintained at about 23° C. during the day and 22° C. during the night. Nutrients and water were added on a regular basis and supplemental lighting was provided with overhead metal halide 1000-Watt lamps as necessary. The plants were employed for testing when they reached the second or third true leaf stage.
(§3) Emulsifiable concentrates of each of each pyridine carboxylate herbicide (Compound A or Compound B) were prepared at 100 grams acid equivalent per liter (g ae/L). The emulsifiable concentrates also included a safener, cloquintocet-mexyl, at 120 grams active ingredient per liter (g ai/L). […]
(§4) The treated plants and control plants were placed in a greenhouse as described above and watered by sub-irrigation to prevent wash-off of the test compounds. After 20-22 d, the condition of the test plants as compared with that of the control plants was determined visually and scored on a scale of 0 to 100 percent where 0 corresponds to no injury and 100 corresponds to complete kill.

[2] = tested on: Triticum aestivum (spring wheat); assay: Greenhouse postemergence phytotoxicity on crop, spring wheat (TRZAS); conditions: 20-22 d; for % visual injury: Example 1
Source text: as §1, §2
(§5) Emulsifiable concentrates of each of each pyridine carboxylate herbicide (Compound A or Compound B) were prepared at 100 grams acid equivalent per liter (g ae/L). The emulsifiable concentrates also included a safener, cloquintocet-mexyl, at 120 grams active ingredient per liter (g ai/L). An aliquot of each emulsifiable concentrate was placed in a 25 mL glass vial and diluted with an aqueous mixture of 1.25% (v/v) ACTIROB® B esterified rapeseed oil (Bayer Crop Science, Research Triangle Park, N.C., USA) or MSO® Concentrate with LECI-TECH® methylated soybean oil (Loveland Products, Loveland, Colo., USA) to obtain concentrated stock solutions at the highest application rate for each herbicide, based upon a 12 milliliter (mL) application volume at a rate of 187 liters per hectare (L/ha). The concentrated stock solutions were further diluted with an aqueous mixture of 1.25% v/v ACTIROB® B or MSO® Concentrate with LECI-TECH® to obtain stock solutions at reduced application rates for each herbicide. Spray solutions of the herbicide combinations (Compound A or Compound B plus glyphosate or glufosinate) were prepared by adding weighed amounts or aliquots of the glyphosate or glufosinate to the stock solutions of Compound A or Compound B to form 12-mL spray solutions in two-way combinations.
(§6) The spray solutions were applied to the plant material with an overhead Mandel track sprayer equipped with 8002E nozzles calibrated to deliver 187 L/ha over an application area of 0.503 square meters (m^2) at a spray height of 18 inches (43 centimeters (cm)) above the average plant canopy. Control plants were sprayed in the same manner with the solvent blank. All pyridine carboxylate herbicide (component a) application rates are given as “g ae/ha” and all glyphosate or glufosinate (component b) application rates are given as “g ai/ha.”
as §4

[3] = tested on: Echinochloa crus-galli (barnyardgrass); assay: Greenhouse postemergence herbicidal effect, barnyardgrass (ECHCG); conditions: Example 5, 20-22 d
Source text: as §1, §2, §3, §4

[4] = tested on: Hordeum vulgare (spring barley); assay: Greenhouse postemergence phytotoxicity on crop, spring barley (HORVS); conditions: 20-22 d; for % visual injury: Example 1
Source text: as §1, §2, §5, §6, §4

[5] = tested on: Rumex obtusifolius (broad-leaf dock); assay: Greenhouse postemergence herbicidal effect, broad-leaf dock (RUMOB); conditions: Example 5, 20-22 d
Source text: as §1, §2, §3, §4

[6] = tested on: Chenopodium album L. (common lambsquarters); assay: Greenhouse postemergence herbicidal effect, common lambsquarters (CHEAL); conditions: 20-22 d; for % visual injury: Example 1
Source text: as §1, §2, §5, §6, §4

[7] = tested on: Sinapis arvensis (wild mustard); assay: Greenhouse postemergence herbicidal effect, wild mustard (SINAR); conditions: 20-22 d; for % visual injury: Example 1
Source text: as §1, §2, §5, §6, §4

[8] = tested on: Polygonum convolvulus (wild buckwheat); assay: Greenhouse postemergence herbicidal effect, wild buckwheat (POLCO); conditions: 20-22 d; for % visual injury: Example 1
Source text: as §1, §2, §5, §6, §4

[9] = tested on: Cyperus esculentus (nutsedge); assay: Greenhouse postemergence herbicidal effect, nutsedge (CYPES); conditions: Example 5, 20-22 d
Source text: as §1, §2, §3, §4

[10] = tested on: Brassica napus (winter rape); assay: Greenhouse postemergence herbicidal effect, winter rape (BRSNW); conditions: 20-22 d; for % visual injury: Example 1
Source text: as §1, §2, §5, §6, §4

[11] = tested on: Stellaria media (chickweed); assay: Greenhouse postemergence herbicidal effect, chickweed (STEME); conditions: Example 5, 20-22 d
Source text: as §1, §2, §3, §4

[12] = tested on: Sorghum vulgare (grain sorghum); assay: Greenhouse postemergence herbicidal effect, grain sorghum (SORVU); conditions: Example 5, 20-22 d
Source text: as §1, §2, §3, §4

[13] = tested on: Helianthus annuus (common sunflower); assay: Greenhouse postemergence herbicidal effect, common sunflower (HELAN); conditions: Example 5, 20-22 d
Source text: as §1, §2, §3, §4

[14] = tested on: Salsola kali (Russian thistle); assay: Greenhouse postemergence herbicidal effect, Russian thistle (SASKR); conditions: 20-22 d; for % visual injury: Example 1
Source text: as §1, §2, §5, §6, §4

[15] = tested on: Matricaria chamomilla (wild chamomile); assay: Greenhouse postemergence herbicidal effect, wild chamomile (MATCH); conditions: 20-22 d; for % visual injury: Example 1
Source text: as §1, §2, §5, §6, §4

[16] = tested on: Viola tricolor (wild pansy); assay: Greenhouse postemergence herbicidal effect, wild pansy (VIOTR); conditions: Example 5, 20-22 d
Source text: as §1, §2, §5, §6, §4

[17] = tested on: Amaranthus retroflexus (pigweed); assay: Greenhouse postemergence herbicidal effect, pigweed (AMARE); conditions: 20-22 d; for % visual injury: Example 1
Source text: as §1, §2, §5, §6, §4

[18] = tested on: Cirsium arvense (Canadian thistle); assay: Greenhouse postemergence herbicidal effect, Canadian thistle (CIRAR); conditions: 20-22 d; for % visual injury: Example 1
Source text: as §1, §2, §5, §6, §4

[19] = tested on: Kochia scoparia (kochia); assay: Greenhouse postemergence herbicidal effect, kochia (KCHSC); conditions: 20-22 d; for % visual injury: Example 1
Source text: as §1, §2, §5, §6, §4

[20] = tested on: Euphorbia heterophylla (poinsettia); assay: Greenhouse postemergence herbicidal effect, poinsettia (EPHHL); conditions: Example 5, 20-22 d
Source text: as §1, §2, §3, §4

[21] = Example 2, Compound A 7.5 g ae/ha alone
[22] = Example 2, Compound A 10 g ae/ha alone
[23] = Example 6, Compound A 7.5 g ae/ha alone
[24] = Example 6, Compound A 10 g ae/ha alone
[25] = Example 5, Compound A 7.5 g ae/ha alone
[26] = Example 5, Compound A 10 g ae/ha alone

N#CCOC(=O)c1nc(-c2ccc3cc[nH]c3c2F)c(F)c(N)c1Cl [Compound A, cyanomethyl 4-amino-3-chloro-5-fluoro-6-(7-fluoro-1H-indol-6-yl)pyridine-2-carboxylate]
78%: % visual injury ([8]; Compound A 7.5 g ae/ha alone) | % visual injury ([17]; Compound A 7.5 g ae/ha alone)
40%: % visual injury, Obs [10, 22] | % visual injury, Obs [10, 24] | % visual injury ([18]; Compound A 10 g ae/ha alone) | % visual injury, Obs [18, 21] | % visual injury, Obs [18, 25] | % visual injury, Obs [18, 23]
25%: % visual injury, Obs ([1]; Compound A 10 g ae/ha alone)
73%: % visual injury ([17]; Compound A 10 g ae/ha alone) | % visual injury, Obs [19, 26]
83%: % visual injury, Obs [7, 21] | % visual injury, Obs [7, 23] | % visual injury, Obs [8, 25]
85%: % visual injury, Obs [17, 22] | % visual injury, Obs [17, 24]
20%: % visual injury, Obs ([1]; Compound A 7.5 g ae/ha alone) | % visual injury, Obs ([5]; Compound A 7.5 g ae/ha alone) | % visual injury ([15]; Compound A 7.5 g ae/ha alone) | % visual injury, Obs [15, 22] | % visual injury, Obs [15, 24]
8%: % visual injury, Obs ([9]; Compound A 10 g ae/ha alone)
10%: % visual injury, Obs [15, 21] | % visual injury, Obs [15, 23]
89%: % visual injury, Obs ([11]; Compound A 7.5 g ae/ha alone) | % visual injury, Obs ([13]; Compound A 10 g ae/ha alone)
63%: % visual injury ([14]; Compound A 10 g ae/ha alone) | % visual injury, Obs [14, 22] | % visual injury, Obs [14, 24] | % visual injury ([19]; Compound A 7.5 g ae/ha alone) | % visual injury ([19]; Compound A 10 g ae/ha alone)
88%: % visual injury, Obs ([3]; Compound A 7.5 g ae/ha alone) | % visual injury ([6]; Compound A 7.5 g ae/ha alone) | % visual injury ([7]; Compound A 7.5 g ae/ha alone) | % visual injury, Obs [7, 22] | % visual injury, Obs [7, 24]
13%: % visual injury, Obs ([5]; Compound A 10 g ae/ha alone)
30%: % visual injury, Obs [8, 21] | % visual injury, Obs [8, 23] | % visual injury, Obs ([9]; Compound A 7.5 g ae/ha alone) | % visual injury ([15]; Compound A 10 g ae/ha alone) | % visual injury ([18]; Compound A 7.5 g ae/ha alone)
38%: % visual injury, Obs ([16]; Compound A 7.5 g ae/ha alone)
80%: % visual injury, Obs ([3]; Compound A 10 g ae/ha alone) | % visual injury, Obs [6, 22] | % visual injury, Obs [6, 24]
75%: % visual injury, Obs [6, 21] | % visual injury, Obs [6, 23] | % visual injury, Obs [19, 25]
55%: % visual injury, Obs [18, 22] | % visual injury, Obs [18, 24]
93%: % visual injury ([6]; Compound A 10 g ae/ha alone) | % visual injury ([8]; Compound A 10 g ae/ha alone) | % visual injury, Obs [8, 26]
70%: % visual injury, Obs [19, 21] | % visual injury, Obs [19, 22] | % visual injury, Obs [19, 23] | % visual injury, Obs [19, 24]
0%: % visual injury ([2]; Compound A 7.5 g ae/ha alone) | % visual injury ([2]; Compound A 10 g ae/ha alone) | % visual injury, Obs [2, 21] | % visual injury, Obs [2, 22] | % visual injury, Obs [2, 23] | % visual injury, Obs [2, 24] | % visual injury ([4]; Compound A 7.5 g ae/ha alone) | % visual injury ([4]; Compound A 10 g ae/ha alone) | % visual injury, Obs [4, 21] | % visual injury, Obs [4, 22] | % visual injury, Obs [4, 23] | % visual injury, Obs [4, 24] | % visual injury, Obs ([12]; Compound A 7.5 g ae/ha alone) | % visual injury, Obs ([12]; Compound A 10 g ae/ha alone)
35%: % visual injury ([10]; Compound A 7.5 g ae/ha alone) | % visual injury, Obs [10, 21] | % visual injury, Obs [10, 23]
15%: % visual injury, Obs ([16]; Compound A 10 g ae/ha alone)
43%: % visual injury, Obs [8, 22] | % visual injury, Obs [8, 24] | % visual injury ([10]; Compound A 10 g ae/ha alone)
97%: % visual injury, Obs ([20]; Compound A 7.5 g ae/ha alone) | % visual injury, Obs ([20]; Compound A 10 g ae/ha alone)
60%: % visual injury ([14]; Compound A 7.5 g ae/ha alone) | % visual injury, Obs [14, 21] | % visual injury, Obs [14, 23] | % visual injury, Obs [18, 26]
90%: % visual injury ([7]; Compound A 10 g ae/ha alone) | % visual injury, Obs ([11]; Compound A 10 g ae/ha alone) | % visual injury, Obs ([13]; Compound A 7.5 g ae/ha alone) | % visual injury, Obs [17, 21] | % visual injury, Obs [17, 23]
